In patent publication US12522601B2, “1,3,4-oxadiazole derivative compounds as histone deacetylase 6 inhibitor, and the pharmaceutical composition comprising the same” (CHONG KUN DANG PHARMACEUTICAL CORP., priority 2020, dated 2026):

How the values were obtained:
human recombinant HDAC1 = molecular target: T1, human recombinant HDAC1 (Homo sapiens, UniProt Q13547); assay: In vitro HDAC enzyme activity inhibition assay, HDAC1 (HDAC Fluorimetric Drug Discovery Kit); assay type: biochemical; details: human recombinant HDAC1, Fluor de Lys-SIRT1 substrate 10 μM, 30° C. for 60 minutes
T1 construct: purchased Enzo Life Sciences, Inc. BML-SE456
Protocol: (§1) In order to confirm the selectivity of the compounds represented by Chemical Formula I of the present invention to HDAC6 through HDAC1 and HDAC6 enzyme activity inhibition experiments, a comparison experiment was performed using the material that has already been developed as a control group.
(§2) HDAC enzyme activity was measured using the HDAC Fluorimetric Drug Discovery Kit (Enzo Life Sciences, Inc., BML-AK511, 516). For the HDAC1 enzyme activity test, human recombinant HDAC1 (BML-SE456) was used as an enzyme source and Fluor de Lys®-SIRT1 (BNL-KI177) was used as a substrate. After dispensing 5-fold diluted compounds into a 96-well plate, 0.3 μg of enzyme and 10 μM substrate were added to each well of the plate and allowed to react at 30° C. for 60 minutes. Next, Fluor de Lys® Developer II (BML-KI176) was added and reacted for 30 minutes to complete the reaction, and then the fluorescence values (Ex 360, Em 460) were measured using a multi-plate reader (Flexstation 3, Molecular Device). The HDAC6 enzymes were tested using human recombinant HDAC6 (382180) from Calbiochem Inc., according to the same protocol as the HDAC1 enzyme activity test method. With respect to the final result values, respective IC50 values were calculated using GraphPad Prism 4.0 program, and results thereof were summarized in Table 5 below.

human recombinant HDAC6 = molecular target: T2, human recombinant HDAC6 (Homo sapiens, UniProt Q9UBN7); assay: In vitro HDAC enzyme activity inhibition assay, HDAC6 (HDAC Fluorimetric Drug Discovery Kit); assay type: biochemical; details: for HDAC6 Selectivity (fold): HDAC6 versus HDAC1; for IC50: human recombinant HDAC6, same protocol as the HDAC1 test
T2 construct: purchased Calbiochem Inc. 382180
T2 sequence (Q9UBN7 1-1215): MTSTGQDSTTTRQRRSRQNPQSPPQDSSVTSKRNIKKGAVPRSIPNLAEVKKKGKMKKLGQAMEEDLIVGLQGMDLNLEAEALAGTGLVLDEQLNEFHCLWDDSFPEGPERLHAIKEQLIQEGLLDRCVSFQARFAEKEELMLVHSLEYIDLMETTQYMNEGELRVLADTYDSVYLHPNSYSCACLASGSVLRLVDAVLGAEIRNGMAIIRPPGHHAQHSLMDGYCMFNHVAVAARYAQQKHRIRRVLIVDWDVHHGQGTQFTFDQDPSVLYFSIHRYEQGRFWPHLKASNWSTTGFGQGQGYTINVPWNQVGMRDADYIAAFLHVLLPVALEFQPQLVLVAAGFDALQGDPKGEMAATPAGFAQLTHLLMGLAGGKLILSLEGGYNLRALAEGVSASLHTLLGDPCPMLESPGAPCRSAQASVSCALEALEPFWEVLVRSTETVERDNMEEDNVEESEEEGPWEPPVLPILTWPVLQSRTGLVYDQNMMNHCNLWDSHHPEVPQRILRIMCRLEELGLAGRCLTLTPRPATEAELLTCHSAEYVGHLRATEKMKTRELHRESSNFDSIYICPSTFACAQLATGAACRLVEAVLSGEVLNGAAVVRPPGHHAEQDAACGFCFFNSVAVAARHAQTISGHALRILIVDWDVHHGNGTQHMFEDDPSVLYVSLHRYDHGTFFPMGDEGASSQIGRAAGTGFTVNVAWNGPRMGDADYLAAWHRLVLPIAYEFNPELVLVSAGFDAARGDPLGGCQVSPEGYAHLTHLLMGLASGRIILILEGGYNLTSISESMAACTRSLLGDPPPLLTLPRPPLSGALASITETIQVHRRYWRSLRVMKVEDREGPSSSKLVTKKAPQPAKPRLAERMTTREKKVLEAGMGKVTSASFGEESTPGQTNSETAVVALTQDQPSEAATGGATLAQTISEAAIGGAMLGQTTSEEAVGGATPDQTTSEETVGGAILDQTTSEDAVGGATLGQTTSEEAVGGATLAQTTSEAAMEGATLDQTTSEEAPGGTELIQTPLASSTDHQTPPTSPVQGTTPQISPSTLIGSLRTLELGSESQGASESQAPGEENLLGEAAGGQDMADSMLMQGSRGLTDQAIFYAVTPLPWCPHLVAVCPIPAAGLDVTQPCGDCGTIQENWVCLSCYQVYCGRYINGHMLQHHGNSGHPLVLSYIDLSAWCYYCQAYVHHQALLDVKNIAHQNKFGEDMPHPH
Protocol: as §1, §2

T1 sequence (Q13547 whole entry): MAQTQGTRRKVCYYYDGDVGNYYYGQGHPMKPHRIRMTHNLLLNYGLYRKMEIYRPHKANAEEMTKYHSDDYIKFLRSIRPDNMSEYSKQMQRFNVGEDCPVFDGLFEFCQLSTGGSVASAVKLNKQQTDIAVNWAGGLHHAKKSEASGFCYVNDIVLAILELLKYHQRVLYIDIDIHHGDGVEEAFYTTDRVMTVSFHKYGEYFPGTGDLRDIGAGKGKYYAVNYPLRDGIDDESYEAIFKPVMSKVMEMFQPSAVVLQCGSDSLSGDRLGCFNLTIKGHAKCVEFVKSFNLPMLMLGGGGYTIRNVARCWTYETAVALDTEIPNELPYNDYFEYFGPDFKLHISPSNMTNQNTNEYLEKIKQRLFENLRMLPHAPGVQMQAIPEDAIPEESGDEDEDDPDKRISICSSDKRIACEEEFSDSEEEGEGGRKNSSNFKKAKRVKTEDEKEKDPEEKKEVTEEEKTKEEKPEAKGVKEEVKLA

Row | SMILES | IC50 (human recombinant HDAC1) | HDAC6 Selectivity (fold) (human recombinant HDAC6) | IC50 (human recombinant HDAC6)
1 | FC(F)c1nnc(-c2ccn3cc(CNc4ccccc4)nc3c2)o1 [Compound 3668, N-((7-(5-(difluoromethyl)-1,3,4-oxadiazol-2-yl)imidazo[1,2-a]pyridin-2-yl)methyl)aniline] | > 50000 nM | 299 fold | 167 nM
2 | CC(=O)c1cccc(NCc2cn3ccc(-c4nnc(C(F)F)o4)cc3n2)c1 [Compound 3669] | > 50000 nM | 426 fold | 117 nM
3 | Fc1ccc(NCc2cn3ccc(-c4nnc(C(F)F)o4)cc3n2)cc1F [Compound 3671, N-((7-(5-(difluoromethyl)-1,3,4-oxadiazol-2-yl)imidazo[1,2-a]pyridin-2-yl)methyl)-3,4-difluoroaniline] | > 50000 nM | 318 fold | 157 nM
4 | Fc1ccc(NCc2cn3ccc(-c4nnc(C(F)F)o4)cc3n2)cc1Cl [Compound 3672, 3-chloro-N-((7-(5-(difluoromethyl)-1,3,4-oxadiazol-2-yl)imidazo[1,2-a]pyridin-2-yl)methyl)-4-fluoroaniline] | > 50000 nM | 464 fold | 108 nM
5 | Fc1ccc(NCc2cn3ccc(-c4nnc(C(F)F)o4)cc3n2)cn1 [Compound 3676, N-((7-(5-(difluoromethyl)-1,3,4-oxadiazol-2-yl)imidazo[1,2-a]pyridin-2-yl)methyl)-6-fluoropyridin-3-amine] | > 50000 nM | 354 fold | 141 nM
6 | FC(F)c1nnc(-c2ccn3cc(CNC45CC6CC(CC(C6)C4)C5)nc3c2)o1 [Compound 3677, (3s,5s,7s)-N-((7-(5-(difluoromethyl)-1,3,4-oxadiazol-2-yl)imidazo[1,2-a]pyridin-2-yl)methyl)adamantane-1-amine] | > 50000 nM | 196 fold | 255 nM
7 | FC(F)c1nnc(-c2ccn3cc(CNC4CCCCC4)nc3c2)o1 [Compound 3678, N-((7-(5-(difluoromethyl)-1,3,4-oxadiazol-2-yl)imidazo[1,2-a]pyridin-2-yl)methyl)cyclohexanamine] | > 50000 nM | 170 fold | 294 nM
8 | FC(F)c1nnc(-c2ccn3cc(COc4ccccc4)nc3c2)o1 [Compound 3719, 2-(difluoromethyl)-5-(2-(phenoxymethyl)imidazo[1,2-a]pyridin-7-yl)-1,3,4-oxadiazole] | > 50000 nM | 237 fold | 211 nM
9 | CC(=O)c1cccc(OCc2cn3ccc(-c4nnc(C(F)F)o4)cc3n2)c1 [Compound 3721, 1-(3-((7-(5-(difluoromethyl)-1,3,4-oxadiazol-2-yl)imidazo[1,2-a]pyridin-2-yl)methoxy)phenyl)ethan-1-one] | > 50000 nM | 123 fold | 406 nM
10 | Fc1cccc(OCc2cn3ccc(-c4nnc(C(F)F)o4)cc3n2)c1 [Compound 3722, 2-(difluoromethyl)-5-(2-((3-fluorophenoxy)methyl)imidazo[1,2-a]pyridin-7-yl)-1,3,4-oxadiazole] | > 50000 nM | 174 fold | 287 nM
11 | FC(F)c1nnc(-c2ccn3cc(COc4ccc(C(F)(F)F)cc4)nc3c2)o1 [Compound 3724, 2-(difluoromethyl)-5-(2-((4-(trifluoromethyl)phenoxy)methyl)imidazo[1,2-a]pyridin-7-yl)-1,3,4-oxadiazole] | > 50000 nM | 56 fold | 893 nM
12 | CN(Cc1cn2ccc(-c3nnc(C(F)F)o3)cc2n1)c1ccccc1 [Compound 3725, N-((7-(5-(difluoromethyl)-1,3,4-oxadiazol-2-yl)imidazo[1,2-a]pyridin-2-yl)methyl)-N-methylaniline] | > 50000 nM | 282 fold | 177 nM
13 | CN1CCC(C(=O)N(Cc2cn3ccc(-c4nnc(C(F)F)o4)cc3n2)c2ccccc2)CC1 [Compound 3782, N-((7-(5-(difluoromethyl)-1,3,4-oxadiazol-2-yl)imidazo[1,2-a]pyridin-2-yl)methyl)-1-methyl-N-phenylpiperidine-4-carboxamide] | > 50000 nM | 740 fold | 67.6 nM
14 | O=C(C1CCN(C2COC2)CC1)N(Cc1cn2ccc(-c3nnc(C(F)F)o3)cc2n1)c1ccccc1 [Compound 3783, N-((7-(5-(difluoromethyl)-1,3,4-oxadiazol-2-yl)imidazo[1,2-a]pyridin-2-yl)methyl)-1-(oxetan-3-yl)-N-phenylpiperidine-4-carboxamide] | > 50000 nM | 696 fold | 71.8 nM

Now from value to compound:

Row | IC50 (human recombinant HDAC1) | HDAC6 Selectivity (fold) (human recombinant HDAC6) | IC50 (human recombinant HDAC6) | SMILES
15 | > 50000 nM | 226 fold | 221 nM | Fc1cccc(NCc2cn3ccc(-c4nnc(C(F)F)o4)cc3n2)c1 [Compound 3670, N-((7-(5-(difluoromethyl)-1,3,4-oxadiazol-2-yl)imidazo[1,2-a]pyridin-2-yl)methyl)-3-fluoroaniline]
16 | > 50000 nM | 125 fold | 400 nM | FC(F)c1nnc(-c2ccn3cc(CNc4ccc(C(F)(F)F)cc4)nc3c2)o1 [Compound 3673, N-((7-(5-(difluoromethyl)-1,3,4-oxadiazol-2-yl)imidazo[1,2-a]pyridin-2-yl)methyl)-4-(trifluoromethyl)aniline]
17 | > 50000 nM | 128 fold | 391 nM | CS(=O)(=O)c1ccc(NCc2cn3ccc(-c4nnc(C(F)F)o4)cc3n2)cc1 [Compound 3674, N-((7-(5-(difluoromethyl)-1,3,4-oxadiazol-2-yl)imidazo[1,2-a]pyridin-2-yl)methyl)-4-(methylsulfonyl)aniline]
18 | > 50000 nM | 401 fold | 125 nM | FC(F)c1nnc(-c2ccn3cc(CNc4cccnc4)nc3c2)o1 [Compound 3675, N-((7-(5-(difluoromethyl)-1,3,4-oxadiazol-2-yl)imidazo[1,2-a]pyridin-2-yl)methyl)pyridin-3-amine]
19 | > 50000 nM | 341 fold | 147 nM | Cc1cccc(NCc2cn3ccc(-c4nnc(C(F)F)o4)cc3n2)c1 [Compound 3679, N-((7-(5-(difluoromethyl)-1,3,4-oxadiazol-2-yl)imidazo[1,2-a]pyridin-2-yl)methyl)-3-methylaniline]
20 | > 50000 nM | 121 fold | 413 nM | Cc1cccc(OCc2cn3ccc(-c4nnc(C(F)F)o4)cc3n2)c1 [Compound 3720, 2-(difluoromethyl)-5-(2-((m-tolyloxy)methyl)imidazo[1,2-a]pyridin-7-yl)-1,3,4-oxadiazole]
21 | > 50000 nM | 174 fold | 240 nM | Fc1ccc(OCc2cn3ccc(-c4nnc(C(F)F)o4)cc3n2)cc1F [Compound 3723, 2-(difluoromethyl)-5-(2-((3,4-difluorophenoxy)methyl)imidazo[1,2-a]pyridin-7-yl)-1,3,4-oxadiazole]
